Experimental data from ChEMBL document CHEMBL3045679, “Microwave-assisted synthesis and pharmacological studies of novel 5-deazaalloxazine derivatives” (2012).
Values after ≈ are worked out from the molar mass of the structure shown. Active and inactive are the calls of the source. The rule behind the calls is not given here.

What was measured:
Rhodotorula mucilaginosa [1] = test: Antifungal activity against Rhodotorula mucilaginosa NCIM 3174 at 1000 ug/disk after 72 hr by disk diffusion method; format: functional; conditions: NCIM 3174, 72 h, read-out: DIZ
Escherichia coli [2] = test: Antibacterial activity against Escherichia coli NCIM 2065 at 1000 ug/disk after 24 hr by disk diffusion method; format: functional; conditions: NCIM 2065, 24 h, read-out: DIZ
Aspergillus flavus [3] = test: Antifungal activity against Aspergillus flavus NCIM 535 at 500 ug/disk after 72 hr by disk diffusion method; format: functional
Pseudomonas aeruginosa [4] = test: Antibacterial activity against Pseudomonas aeruginosa NCIM 2200 at 1000 ug/disk after 24 hr by disk diffusion method; format: functional; conditions: NCIM 2200, 24 h, read-out: DIZ
Bacillus cereus [5] = test: Antibacterial activity against Bacillus cereus NCIM 2155 at 1000 ug/disk after 24 hr by disk diffusion method; format: functional; conditions: NCIM 2155, 24 h, read-out: DIZ
Candida albicans [6] = test: Antifungal activity against Candida albicans NCIM 3471 at 500 ug/disk after 72 hr by disk diffusion method; format: functional
Escherichia coli [7] = test: Antibacterial activity against Escherichia coli NCIM 2065 at 500 ug/disk after 24 hr by disk diffusion method; format: functional; conditions: NCIM 2065, 24 h, read-out: DIZ
Aspergillus niger [8] = test: Antifungal activity against Aspergillus niger NCIM 1196 at 500 ug/disk after 72 hr by disk diffusion method; format: functional; conditions: NCIM 1196, 72 h, read-out: DIZ
Streptomyces albus [9] = test: Antibacterial activity against Streptomyces albus NCIM 2178 at 500 ug/disk after 24 hr by disk diffusion method; format: functional, organism-based
Bacillus subtilis [10] = test: Antibacterial activity against Bacillus subtilis NCIM 2063 after 24 hr by broth dilution assay; format: functional; conditions: NCIM 2063, 24 h
Penicillium chrysogenum [11] = test: Antifungal activity against Penicillium chrysogenum NCIM 707 at 500 ug/disk after 72 hr by disk diffusion method; format: functional
Bacillus subtilis [12] = test: Antibacterial activity against Bacillus subtilis NCIM 2063 at 1000 ug/disk after 24 hr by disk diffusion method; format: functional; conditions: NCIM 2063, 24 h, read-out: DIZ
Penicillium chrysogenum [13] = test: Antifungal activity against Penicillium chrysogenum NCIM 707 at 1000 ug/disk after 72 hr by disk diffusion method; format: functional; conditions: NCIM 707, 72 h, read-out: DIZ
Aspergillus flavus [14] = test: Antifungal activity against Aspergillus flavus NCIM 535 at 1000 ug/disk after 72 hr by disk diffusion method; format: functional
Aspergillus niger [15] = test: Antifungal activity against Aspergillus niger NCIM 1196 at 1000 ug/disk after 72 hr by disk diffusion method; format: functional; conditions: NCIM 1196, 72 h, read-out: DIZ
Klebsiella aerogenes [16] = test: Antibacterial activity against Enterobacter aerogenes NCIM 2239 at 500 ug/disk after 24 hr by disk diffusion method; format: functional
Pseudomonas aeruginosa [17] = test: Antibacterial activity against Pseudomonas aeruginosa NCIM 2200 after 24 hr by broth dilution assay; format: functional; conditions: NCIM 2200, 24 h
Bacillus cereus [18] = test: Antibacterial activity against Bacillus cereus NCIM 2155 at 500 ug/disk after 24 hr by disk diffusion method; format: functional
Candida albicans [19] = test: Antifungal activity against Candida albicans NCIM 3471 at 1000 ug/disk after 72 hr by disk diffusion method; format: functional
Pseudomonas aeruginosa [20] = test: Antibacterial activity against Pseudomonas aeruginosa NCIM 2200 at 500 ug/disk after 24 hr by disk diffusion method; format: functional; conditions: NCIM 2200, 24 h, read-out: DIZ
Bacillus subtilis [21] = test: Antibacterial activity against Bacillus subtilis NCIM 2063 at 500 ug/disk after 24 hr by disk diffusion method; format: functional
Lipomyces lipofer [22] = test: Antifungal activity against Lipomyces lipofer NCIM 3252 at 500 ug/disk after 72 hr by disk diffusion method; format: functional; conditions: NCIM 3252, 72 h, read-out: DIZ
Bacillus cereus [23] = test: Antibacterial activity against Bacillus cereus NCIM 2155 after 24 hr by broth dilution assay; format: functional; conditions: NCIM 2155, 24 h
Klebsiella aerogenes [24] = test: Antibacterial activity against Enterobacter aerogenes NCIM 2239 at 1000 ug/disk after 24 hr by disk diffusion method; format: functional; conditions: NCIM 2239, 24 h, read-out: DIZ
Lipomyces lipofer [25] = test: Antifungal activity against Lipomyces lipofer NCIM 3252 after 72 hr by broth dilution assay; format: functional; conditions: NCIM 3252, 72 h
Streptomyces albus [26] = test: Antibacterial activity against Streptomyces albus NCIM 2178 at 1000 ug/disk after 24 hr by disk diffusion method; format: functional
Aspergillus flavus [27] = test: Antifungal activity against Aspergillus flavus NCIM 535 after 72 hr by broth dilution assay; format: functional; conditions: NCIM 535, 72 h
Klebsiella aerogenes [28] = test: Antibacterial activity against Enterobacter aerogenes NCIM 2239 after 24 hr by broth dilution assay; format: functional; conditions: NCIM 2239, 24 h
Rhodotorula mucilaginosa [29] = test: Antifungal activity against Rhodotorula mucilaginosa NCIM 3174 at 500 ug/disk after 72 hr by disk diffusion method; format: functional
Aspergillus niger [30] = test: Antifungal activity against Aspergillus niger NCIM 1196 after 72 hr by broth dilution assay; format: functional; conditions: NCIM 1196, 72 h
Escherichia coli [31] = test: Antibacterial activity against Escherichia coli NCIM 2065 after 24 hr by broth dilution assay; format: functional; conditions: NCIM 2065, 24 h
Lipomyces lipofer [32] = test: Antifungal activity against Lipomyces lipofer NCIM 3252 at 1000 ug/disk after 72 hr by disk diffusion method; format: functional; conditions: NCIM 3252, 72 h, read-out: DIZ
Penicillium chrysogenum [33] = test: Antifungal activity against Penicillium chrysogenum NCIM 707 after 72 hr by broth dilution assay; format: functional; conditions: NCIM 707, 72 h

Row | MIC (Bacillus subtilis [10]) | MIC (Pseudomonas aeruginosa [17]) | MIC (Bacillus cereus [23]) | SMILES | zone of inhibition at 1000 µg/disc (Rhodotorula mucilaginosa [1]) | zone of inhibition at 1000 µg/disc (Escherichia coli [2]) | diameter of the inhibition zone (DIZ) (Aspergillus flavus [3]) | zone of inhibition at 1000 µg/disc (Pseudomonas aeruginosa [4]) | zone of inhibition at 1000 µg/disc (Bacillus cereus [5]) | diameter of the inhibition zone (DIZ) (Candida albicans [6]) | zone of inhibition at 500 µg/disc (Escherichia coli [7]) | zone of inhibition at 500 µg/disc (Aspergillus niger [8]) | diameter of the inhibition zone (DIZ) (Streptomyces albus [9]) | diameter of the inhibition zone (DIZ) (Penicillium chrysogenum [11]) | zone of inhibition at 1000 µg/disc (Bacillus subtilis [12]) | zone of inhibition at 1000 µg/disc (Penicillium chrysogenum [13]) | zone of inhibition at 1000 µg/disc (Aspergillus niger [15]) | diameter of the inhibition zone (DIZ) (Klebsiella aerogenes [16]) | diameter of the inhibition zone (DIZ) (Candida albicans [19]) | zone of inhibition at 500 µg/disc (Pseudomonas aeruginosa [20]) | zone of inhibition at 500 µg/disc (Lipomyces lipofer [22]) | also measured
1 | 7.8 µg/mL (≈ 30.1 µM) | 7.8 µg/mL (≈ 30.1 µM) | 62.5 µg/mL (≈ 241 µM) | COc1cccc2cc3c(=O)[nH]c(=S)[nH]c3nc12 | 9 mm | 11 mm | inactive | 13 mm | 12 mm | inactive | 9 mm | 8 mm | inactive | inactive | 13 mm | 12 mm | 10 mm | inactive | inactive | 10 mm | 11 mm | zone of inhibition at 1000 µg/disc (Aspergillus flavus [14]; NCIM 535, 72 h, read-out: DIZ): 13 mm; zone of inhibition at 500 µg/disc (Bacillus cereus [18]; NCIM 2155, 24 h, read-out: DIZ): 9 mm; zone of inhibition at 500 µg/disc (Bacillus subtilis [21]; NCIM 2063, 24 h, read-out: DIZ): 10 mm; zone of inhibition at 1000 µg/disc (Klebsiella aerogenes [24]): 12 mm; MIC (Lipomyces lipofer [25]): 125 µg/mL (≈ 482 µM); diameter of the inhibition zone (DIZ) (Streptomyces albus [26]): inactive; MIC (Aspergillus flavus [27]): 125 µg/mL (≈ 482 µM); MIC (Klebsiella aerogenes [28]): 31.2 µg/mL (≈ 120 µM); diameter of the inhibition zone (DIZ) (Rhodotorula mucilaginosa [29]): inactive; MIC (Aspergillus niger [30]): 125 µg/mL (≈ 482 µM); MIC (Escherichia coli [31]): 62.5 µg/mL (≈ 241 µM); zone of inhibition at 1000 µg/disc (Lipomyces lipofer [32]): 14 mm
2 | 62.5 µg/mL (≈ 241 µM) | 3.9 µg/mL (≈ 15 µM) | 125 µg/mL (≈ 482 µM) | COc1ccc2nc3[nH]c(=S)[nH]c(=O)c3cc2c1 | 8 mm | 13 mm | inactive | 15 mm | 10 mm | inactive | 9 mm | 11 mm | inactive | inactive | 11 mm | 12 mm | 13 mm | inactive | inactive | 9 mm | 11 mm | diameter of the inhibition zone (DIZ) (Aspergillus flavus [14]): inactive; diameter of the inhibition zone (DIZ) (Bacillus cereus [18]): inactive; diameter of the inhibition zone (DIZ) (Bacillus subtilis [21]): inactive; MIC (Penicillium chrysogenum [33]): 125 µg/mL (≈ 482 µM); zone of inhibition at 1000 µg/disc (Klebsiella aerogenes [24]): 13 mm; MIC (Lipomyces lipofer [25]): 125 µg/mL (≈ 482 µM); diameter of the inhibition zone (DIZ) (Streptomyces albus [26]): inactive; MIC (Klebsiella aerogenes [28]): 15.6 µg/mL (≈ 60.2 µM); diameter of the inhibition zone (DIZ) (Rhodotorula mucilaginosa [29]): inactive; MIC (Aspergillus niger [30]): 7.8 µg/mL (≈ 30.1 µM); MIC (Escherichia coli [31]): 31.2 µg/mL (≈ 120 µM); zone of inhibition at 1000 µg/disc (Lipomyces lipofer [32]): 12 mm
